In paper PMC12483202, “Pharmacokinetic profile of oral firocoxib in the koala (Phascolarctos cinereus)” (PLOS One, 2025):
Read-outs that look alike come from different tables or passages of the source.

Columns and labels:
[1] = Non-specific binding to the filtration membrane (phosphate buffered saline); type: in vitro ADME; details: at a concentration of 250 ng/mL
Experimental: The same concentrations of firocoxib were added to phosphate buffered saline and underwent ultrafiltration to determine non-specific binding to the filtration membrane. Thereafter the corrected percentage of substrate binding to plasma proteins was calculated as: […]

cyclooxygenase-2 = details: based on in vitro studies in other species; cited from earlier work
[2] = cited from earlier work
[3] = cited from earlier work; remark: listed apart in the source
[4] = cited from earlier work; remark: listed apart in the source
[5] = test system: urate crystal-induced synovitis in dogs; design: method as in ref 38 = [38]; 38 Dauteloup C , Pichou C , Beugnet F . Assessment of the efficacy of firocoxib and robenacoxib in an induced synovitis model of acute arthritis in dogs . International Journal of Applied Research in; details: cited from earlier work
elephant plasma proteins = test system: elephant plasma proteins; design: method as in PMID 37428699, PMID 38453490; details: African and Asian elephants; rapid equilibrium dialysis; cited from earlier work
osteoarthritis in horses = test system: osteoarthritis in horses; design: method as in PMID 36684818; details: cited from earlier work
[6] = Horses (6), PO 0.1 mg/kg, ref [1] of S9 Table
[7] = Horses (12), IV 0.1 mg/kg, ref [3] of S9 Table
[8] = Horses (12), PO 0.1 mg/kg, ref [3] of S9 Table
[9] = Dogs (40), PO 5 mg/kg, ref [1] of S9 Table

- non-specific binding of firocoxib [1]: 4.06%
Structure (SMILES): CC1(C)OC(=O)C(OCC2CC2)=C1c1ccc(S(C)(=O)=O)cc1 [firocoxib]
- target plasma concentration to inhibit 80% of cyclooxygenase-2 activity (IC80) (cyclooxygenase-2): approximately 100 ng/mL
- Cmax [2, 6]: 58.0 ng/mL
- Tmax [2, 6]: 3.2 h
- t1/2 [2, 6]: 32.77 h
- Cmax [2, 7]: 210 ng/mL
- t1/2 [2, 7]: 34 h
- Cmax [2, 8]: 75 ng/mL
- Tmax [2, 8]: 3.9 h
- t1/2 [2, 8]: 30 h
- Absolute oral bioavailability ([2]; horses dosed at 0.1 mg/kg): 79%
- Cl ([2]; horses): 0.617 mL/min/kg
- Tmax (mean) ([2]; horses): 3.2 h
- Vd ([2]; horses): 1.7 L/kg
- plasma elimination half-life ([2]; horses): 32.8 h
- Cmax ([2]; horses, oral 0.1 mg/kg): 58 ng/mL
- t1/2 ([3]; Dogs (6), PO 5 mg/kg, ref [2] of S9 Table): 6.5 h
- Cmax [3, 9]: 520 ng/mL
- Tmax [3, 9]: 1.25 h
- t1/2 [3, 9]: 5.9 h
- Tmax ([3]; dogs): 1.25 h
- plasma elimination half-life (mean) ([3]; dogs): 5.90 h
- mean Cmax ([3]; dogs, oral 5 mg/kg): 520 ng/mL
- ionizability ([4]; at physiological pH): low ionizability
- -log10 dissociation constant (pka) [4]: 19.69
- solubility in dimethyl sulfoxide [4]: highly soluble
- solubility in water [4]: insoluble
- peak vertical force and weight-bearing capacity [5]: efficacy in improving the peak vertical force and weight-bearing capacity
- binding to elephant plasma proteins (elephant plasma proteins): 45%
- efficacy for controlling pain and inflammation associated with osteoarthritis (osteoarthritis in horses): good efficacy
